Results published in ChEMBL document CHEMBL1153496, “SAR studies on azasterols as potential anti-trypanosomal and anti-leishmanial agents” (Bioorg Med Chem, 2009).

Columns and labels:
Trypanosoma cruzi = assay: Antitrypanosomal activity against Trypanosoma cruzi amastigotes; assay type: functional, organism-based
[1] = test system: Trypanosoma brucei rhodesiense; assay: Antitrypanosomal activity against Trypanosoma brucei rhodesiense blood stream form; assay type: functional, organism-based
[2] = Lipophilicity, log D of the compound; assay type: physicochemical; conditions: octanol/water
[3] = Cytotoxicity against rat L6 cells; assay type: cell-based; conditions: read-out: TD50 (the source's name)
Leishmania donovani = assay: Antitrypanosomal activity against Leishmania donovani amastigotes; assay type: functional, organism-based
[4] = Inhibition of Saccharomyces cerevisiae SMT
[5] = Stability assessed as ionization at pH 7.4; assay type: physicochemical
[6] = Dissociation constant, pKa of the compound; assay type: physicochemical
KB = assay: Cytotoxicity against human KB cells; assay type: functional, cell-based

| Compound | EC50 (Trypanosoma cruzi) [µM] | EC50 [1] [µM] | logD [2] | CC50 [3] [µM] | EC50 (Leishmania donovani) [µM] | IC50 [4] [µM] | Activity [5] [%] | pKa [6] | EC50 (KB) [µM] |
| --- | --- | --- | --- | --- | --- | --- | --- | --- | --- |
| COC(=O)CCCNC[C@@H](C)[C@H]1CC[C@H]2[C@@H]3CC=C4C[C@@H](OC(=O)C(C)(C)C)CC[C@]4(C)[C@H]3CC[C@]12C | 9.7 | 2.2 | 5.8 | 11.1 | 11.3 |  |  |  |  |
| CC(=O)O[C@H]1CC[C@@]2(C)C(=CC[C@H]3[C@@H]4CC[C@H]([C@H](C)CCCN5CCCC5=O)[C@@]4(C)CC[C@@H]32)C1 | 25 | 38.3 |  | 2.5 | 13.9 |  |  |  |  |
| C[C@H](CCCN(C)C)[C@H]1CC[C@H]2C3=C(CC[C@]12C)[C@@]1(C)CC[C@H](O)C[C@@H]1CC3 |  |  |  |  |  | 0.08 |  |  |  |
| COC(=O)CCCNC[C@@H](C)[C@H]1CC[C@H]2[C@@H]3CC=C4C[C@@H](OC(=O)CC(C)C)CC[C@]4(C)[C@H]3CC[C@]12C | 10.8 | 3.9 | 6 | 33.2 | 4.9 |  |  |  |  |
| COC(=O)CCCNC[C@@H](C)[C@H]1CC[C@H]2[C@@H]3CC=C4C[C@@H](OC(=O)CN(C)C)CC[C@]4(C)[C@H]3CC[C@]12C | 11.6 | 6.2 | 4.4 | 24 | 18.5 |  | 34 | 7.1 |  |
| COC(=O)CCCNC[C@@H](C)[C@H]1CC[C@H]2[C@@H]3CC=C4C[C@@H](OC(C)=O)CC[C@]4(C)[C@H]3CC[C@]12C | 24.7 | 0.012 |  |  | 19.2 |  |  |  | 19.2 |
| COC(=O)CCCNC[C@@H](C)[C@H]1CC[C@H]2[C@@H]3CC=C4C[C@@H](OC(=O)CCC(=O)O)CC[C@]4(C)[C@H]3CC[C@]12C | 13.7 | 9.8 | 4.1 | 76.7 | 35.7 |  | 99 | 4.4 |  |
| COC(=O)CCCNCCC[C@@H](C)[C@H]1CC[C@H]2[C@@H]3CC=C4C[C@@H](OC(C)=O)CC[C@]4(C)[C@H]3CC[C@]12C | 7.4 | 1.8 |  | 5.8 | 23.8 |  |  |  |  |
| COC(=O)CCCNC[C@@H](C)[C@H]1CC[C@H]2[C@@H]3CC=C4C[C@@H](OC(=O)c5cccnc5)CC[C@]4(C)[C@H]3CC[C@]12C | 2.51 | 0.8 | 5.2 | 9.8 | 13.7 |  |  |  |  |
| COC(=O)CCCNC(=O)CC[C@@H](C)[C@H]1CC[C@H]2[C@@H]3CC=C4C[C@@H](OC(C)=O)CC[C@]4(C)[C@H]3CC[C@]12C | 19.7 | 18.4 |  | > 174 | 3.1 |  |  |  |  |
| CC(=O)O[C@H]1CC[C@@]2(C)C(=CC[C@H]3[C@@H]4CC[C@H]([C@H](C)CCC(=O)NCCCCCC(=O)O)[C@@]4(C)CC[C@@H]32)C1 | 41.9 | 56 |  | 63 | 2 |  |  |  |  |
| CC(=O)O[C@H]1CC[C@@]2(C)C(=CC[C@H]3[C@@H]4CC[C@H]([C@H](C)CCCNCCCCCC(=O)O)[C@@]4(C)CC[C@@H]32)C1 | 28.9 | 11.2 |  | 56 | 11.4 |  |  |  |  |
| CCCC(=O)O[C@H]1CC[C@@]2(C)C(=CC[C@H]3[C@@H]4CC[C@H]([C@H](C)CNCCCC(=O)OC)[C@@]4(C)CC[C@@H]32)C1 | 1.7 | 1.6 | 5.6 | 30.7 | 6.8 |  |  |  |  |
| CC(=O)O[C@H]1CC[C@@]2(C)C(=CC[C@H]3[C@@H]4CC[C@H]([C@H](C)CCC(=O)N(C)C)[C@@]4(C)CC[C@@H]32)C1 | 28.2 | 21.7 |  | > 202 | 24.6 |  |  |  |  |
| CCC(=O)O[C@H]1CC[C@@]2(C)C(=CC[C@H]3[C@@H]4CC[C@H]([C@H](C)CNCCCC(=O)OC)[C@@]4(C)CC[C@@H]32)C1 | 7.6 | 0.8 | 5.1 | 21.9 | 12.1 |  |  |  |  |
| COC(=O)CCCCCNC(=O)CC[C@@H](C)[C@H]1CC[C@H]2[C@@H]3CC=C4C[C@@H](OC(C)=O)CC[C@]4(C)[C@H]3CC[C@]12C | 23 | 14.6 |  | > 165 | 1.6 |  |  |  |  |
| COC(=O)CCCCCNCCC[C@@H](C)[C@H]1CC[C@H]2[C@@H]3CC=C4C[C@@H](OC(C)=O)CC[C@]4(C)[C@H]3CC[C@]12C | 11.1 | 2 |  | 7.4 | 11.7 |  |  |  |  |
